# From ChEMBL document CHEMBL1201862, “PubChem BioAssay data set” (2004)
# Active and inactive are the calls of the source.
# Key:
# [1] = molecular target: E3 ubiquitin-protein ligase Mdm2 (Homo sapiens, UniProt Q00987); test: MDM2-luc reporter signal enhancers, multi-concentration potency testing, MDM2 ubiquitin-protein ligase inhibitor program, whole-cell format, luminescence detection, 384-well microplate (AID 1394); type: functional;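 note: MDM2 E3 inhibitors raise luminescence so EC50 is for signal enhancement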
# [2] = molecular target: T1, Microphthalmia-associated transcription factor (Homo sapiens, UniProt O75030); test: reducers of TRPM1 reporter luminescence, concentration series – cell-based, SK-MEL-5, cherry-picked, set 3, MITF inhibitor project, dose response (AID 493073); type: functional;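 note: SK-MEL-5 melanoma cells with luciferase driven by the MITF target TRPM1 promoter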
# T1 sequence (O75030 whole entry): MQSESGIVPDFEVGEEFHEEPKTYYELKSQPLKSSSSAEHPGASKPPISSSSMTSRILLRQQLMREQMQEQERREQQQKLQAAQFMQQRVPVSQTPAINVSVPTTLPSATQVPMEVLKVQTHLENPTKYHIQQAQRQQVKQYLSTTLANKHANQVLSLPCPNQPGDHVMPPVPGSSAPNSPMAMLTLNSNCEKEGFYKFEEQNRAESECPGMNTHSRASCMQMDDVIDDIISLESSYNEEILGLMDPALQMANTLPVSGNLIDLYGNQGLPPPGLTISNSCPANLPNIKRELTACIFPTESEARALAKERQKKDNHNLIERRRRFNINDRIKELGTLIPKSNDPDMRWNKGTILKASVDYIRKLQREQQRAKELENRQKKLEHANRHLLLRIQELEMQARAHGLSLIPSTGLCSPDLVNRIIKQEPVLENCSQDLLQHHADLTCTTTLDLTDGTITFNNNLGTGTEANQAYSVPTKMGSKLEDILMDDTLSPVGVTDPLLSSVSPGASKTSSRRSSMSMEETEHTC
# [3] = molecular target: Dual specificity tyrosine-phosphorylation-regulated kinase 1A (Rattus norvegicus, UniProt Q63470); type: biochemical, Homo sapiens
# Protein Wnt-3a = Protein Wnt-3a (Mus musculus, UniProt P27467); test: antagonism of Wnt3a pathway luciferase reporter – Wnt-LIGHT cells, luminescence, selectivity assay for Gli-SUFU antagonist project, dose response (AID 651570); type: functional; conditions: read-out: IC50_Mean;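 note: Wnt-LIGHT reporter cells stimulated with conditioned medium from Wnt3a-producing cells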
# [4] = reduction of Shn3 3'UTR-driven luciferase in osteoblasts – cell-based, Clone20 osteoblasts, firefly luciferase, cherry-picked, dose response (AID 624132); type: functional;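 note: firefly luciferase luminescence from reporter carrying the Shn3 3'UTR in osteoblasts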
# [5] = non-specific 3'UTR reporter inhibition in Clone20-Shn3RL – cell-based, Renilla luciferase, cherry-picked, counter-screen for Shn3 inhibitor project, dose response (AID 624133); type: functional
# [6] = MIN6 cell viability loss – mouse insulinoma, cytotoxicity control, dose response (AID 2122); type: functional;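 note: confirmatory high-throughput counterscreen run to flag cytotoxic compounds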
# HEK293 = test: EBV LMP1 TES2 canonical NF-kB signalling blockers – cell-based, HEK293, luciferase, cherry-pick, dose response (AID 588343); type: functional; conditions: Homo sapiens
# [7] = decrease of insulin promoter-GFP reporter – imaging, high-content screening, mouse beta cells (AID 1628); type: functional; conditions: MIN6
# INS1 = test: INS-1E survival protection against cytokine death – cell-based, luminescence, retest, dose response (AID 449756); type: functional; conditions: Rattus norvegicus;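 note: cell death triggered by IL-1 beta plus TNF-alpha plus IFN-gamma mixture; protective hits raise ATP signal compared with cytokine alone wells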
# Cytochrome P450 2D6 = Cytochrome P450 2D6 (Homo sapiens, UniProt P10635);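 note: CYP2D6 member of a cytochrome P450 panel assay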
# [8] = molecular target: T2, Mannose-6-phosphate isomerase (Homo sapiens, UniProt P34949); test: phosphomannose isomerase inhibition – biochemical, fluorescence intensity, confirmation (AID 1535)
# T2 sequence (P34949 whole entry): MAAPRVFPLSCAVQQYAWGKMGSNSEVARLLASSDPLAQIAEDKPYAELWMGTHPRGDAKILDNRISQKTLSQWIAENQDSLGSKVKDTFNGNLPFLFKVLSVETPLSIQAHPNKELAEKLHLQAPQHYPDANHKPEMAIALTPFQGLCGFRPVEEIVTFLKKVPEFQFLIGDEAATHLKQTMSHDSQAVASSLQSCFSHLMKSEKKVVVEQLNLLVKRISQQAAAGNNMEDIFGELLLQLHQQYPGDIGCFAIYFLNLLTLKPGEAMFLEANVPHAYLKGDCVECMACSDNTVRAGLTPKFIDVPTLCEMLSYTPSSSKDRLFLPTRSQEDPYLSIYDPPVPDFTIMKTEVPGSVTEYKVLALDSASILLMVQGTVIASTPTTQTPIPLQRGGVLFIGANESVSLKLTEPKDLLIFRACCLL
# Nonstructural protein 1 = Nonstructural protein 1 (Influenza A virus, UniProt Q194T2); type: functional, Influenza A virus (A/California/07/2009(H1N1))
# [9] = molecular target: Voltage-dependent T-type calcium channel subunit alpha-1H (Homo sapiens, UniProt O95180); type: functional;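 note: channel activity triggered by adding a high calcium stimulation buffer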
# [10] = microbe, parasite or virus in culture; type: functional; conditions: Mycobacterium tuberculosis
# Cytochrome P450 3A4 = Cytochrome P450 3A4 (Homo sapiens, UniProt P08684);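 note: CYP3A4 tested as one member of a cytochrome P450 panel screen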
# [11] = A Cell Based Secondary Assay To Explore Cytotoxicity of Compounds that Sensitize Mycobacterium Tuberculosis to Beta-Lactam Antibiotics.; type: functional
# [12] = Trypanosoma cruzi growth suppression in host cells – NIH3T3 host cells, beta-gal luminescence, confirmation (AID 2044); type: functional, cell-based;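 note: intracellular parasites grown in NIH/3T3 mouse fibroblasts as host cells; luminescent beta-galactosidase reporter signal from transgenic T. cruzi replicating inside host cells; inhibitors lower the luminescence signal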
# [13] = NIH3T3 cell viability loss – ATP luminescence, mouse fibroblasts, counter-screen, dose response (AID 2010); type: functional, cell-based;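 note: cells exposed to compound for about 90 hours before reading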
# [14] = molecular target: T3, E3 ubiquitin-protein ligase XIAP (Homo sapiens, UniProt P98170); test: small molecules displacing peptide from XIAP – biochemical, IAP family, fluorescence polarization (AID 1018); type: functional
# [15] = molecular target: T3, E3 ubiquitin-protein ligase XIAP; test: Counter Screen using XIAP-Bir3 for Chemical Antagonists of Bir1/2 domains of IAP-family anti-apoptotic proteins. [Related pubchem assays (depositor defined):AID1018, AID1449, AID1514, AID1638, AID1749, AID1750, AID488957, AID488963]
# [16] = molecular target: T4, Alkaline phosphatase, tissue-nonspecific isozyme (Homo sapiens, UniProt P05186); test: potency against alkaline phosphatase TNAP – biochemical, luminescent, dose response, SAR follow-up (AID 1056)
# T4 sequence (P05186 whole entry): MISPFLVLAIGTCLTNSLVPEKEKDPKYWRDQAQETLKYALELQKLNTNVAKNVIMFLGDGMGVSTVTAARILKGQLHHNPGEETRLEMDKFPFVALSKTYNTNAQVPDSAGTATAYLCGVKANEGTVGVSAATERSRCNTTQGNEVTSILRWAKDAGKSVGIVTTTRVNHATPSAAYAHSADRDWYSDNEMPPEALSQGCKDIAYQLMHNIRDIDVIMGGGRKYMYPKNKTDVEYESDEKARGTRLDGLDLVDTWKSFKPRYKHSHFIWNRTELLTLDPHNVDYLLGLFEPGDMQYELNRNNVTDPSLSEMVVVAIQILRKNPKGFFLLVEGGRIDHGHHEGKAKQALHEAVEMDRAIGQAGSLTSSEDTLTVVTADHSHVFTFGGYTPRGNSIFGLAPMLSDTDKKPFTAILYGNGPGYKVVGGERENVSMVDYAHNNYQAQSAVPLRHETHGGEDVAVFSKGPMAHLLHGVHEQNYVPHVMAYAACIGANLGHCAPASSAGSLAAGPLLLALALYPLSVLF
# [17] = molecular target: Glucose-6-phosphate 1-dehydrogenase (Homo sapiens, UniProt P11413); test: inhibition of Homo sapiens G6PD, dose series – biochemical, fluorescence, selectivity assay for P. falciparum G6PD inhibitor project, dose response (AID 504792); type: functional
# [18] = molecular target: DNA dC->dU-editing enzyme APOBEC-3A (Homo sapiens, UniProt P31941); test: SAR analysis of small molecule inhibitors of APOBEC3A DNA Deaminase via a fluorescence-based single-stranded DNA deaminase assay.; type: functional; conditions: read-out: IC50_Mean
# [19] = molecular target: DNA dC->dU-editing enzyme APOBEC-3G (Homo sapiens, UniProt Q9HC16); test: inhibition of APOBEC3G ssDNA deamination – biochemical, fluorescence, single-stranded DNA substrate, SAR follow-up (AID 602136); type: functional; conditions: read-out: IC50_Mean
# [20] = fluconazole-exposed Candida albicans growth modulators – fluorescence, retest, confirmation (AID 2467); type: functional, cell-based
# [21] = NIH-3T3 fibroblast cytotoxicity, dose response, cytotoxicity control, cell-based, fluorescence, Alamar Blue, secondary assay (AID 2327); type: functional;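 note: NIH-3T3 mouse fibroblasts cultured with fluconazole at 8 µg/mL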
# Chain of Voltage-dependent T-type calcium channel subunit alpha-1H (O95180 whole entry): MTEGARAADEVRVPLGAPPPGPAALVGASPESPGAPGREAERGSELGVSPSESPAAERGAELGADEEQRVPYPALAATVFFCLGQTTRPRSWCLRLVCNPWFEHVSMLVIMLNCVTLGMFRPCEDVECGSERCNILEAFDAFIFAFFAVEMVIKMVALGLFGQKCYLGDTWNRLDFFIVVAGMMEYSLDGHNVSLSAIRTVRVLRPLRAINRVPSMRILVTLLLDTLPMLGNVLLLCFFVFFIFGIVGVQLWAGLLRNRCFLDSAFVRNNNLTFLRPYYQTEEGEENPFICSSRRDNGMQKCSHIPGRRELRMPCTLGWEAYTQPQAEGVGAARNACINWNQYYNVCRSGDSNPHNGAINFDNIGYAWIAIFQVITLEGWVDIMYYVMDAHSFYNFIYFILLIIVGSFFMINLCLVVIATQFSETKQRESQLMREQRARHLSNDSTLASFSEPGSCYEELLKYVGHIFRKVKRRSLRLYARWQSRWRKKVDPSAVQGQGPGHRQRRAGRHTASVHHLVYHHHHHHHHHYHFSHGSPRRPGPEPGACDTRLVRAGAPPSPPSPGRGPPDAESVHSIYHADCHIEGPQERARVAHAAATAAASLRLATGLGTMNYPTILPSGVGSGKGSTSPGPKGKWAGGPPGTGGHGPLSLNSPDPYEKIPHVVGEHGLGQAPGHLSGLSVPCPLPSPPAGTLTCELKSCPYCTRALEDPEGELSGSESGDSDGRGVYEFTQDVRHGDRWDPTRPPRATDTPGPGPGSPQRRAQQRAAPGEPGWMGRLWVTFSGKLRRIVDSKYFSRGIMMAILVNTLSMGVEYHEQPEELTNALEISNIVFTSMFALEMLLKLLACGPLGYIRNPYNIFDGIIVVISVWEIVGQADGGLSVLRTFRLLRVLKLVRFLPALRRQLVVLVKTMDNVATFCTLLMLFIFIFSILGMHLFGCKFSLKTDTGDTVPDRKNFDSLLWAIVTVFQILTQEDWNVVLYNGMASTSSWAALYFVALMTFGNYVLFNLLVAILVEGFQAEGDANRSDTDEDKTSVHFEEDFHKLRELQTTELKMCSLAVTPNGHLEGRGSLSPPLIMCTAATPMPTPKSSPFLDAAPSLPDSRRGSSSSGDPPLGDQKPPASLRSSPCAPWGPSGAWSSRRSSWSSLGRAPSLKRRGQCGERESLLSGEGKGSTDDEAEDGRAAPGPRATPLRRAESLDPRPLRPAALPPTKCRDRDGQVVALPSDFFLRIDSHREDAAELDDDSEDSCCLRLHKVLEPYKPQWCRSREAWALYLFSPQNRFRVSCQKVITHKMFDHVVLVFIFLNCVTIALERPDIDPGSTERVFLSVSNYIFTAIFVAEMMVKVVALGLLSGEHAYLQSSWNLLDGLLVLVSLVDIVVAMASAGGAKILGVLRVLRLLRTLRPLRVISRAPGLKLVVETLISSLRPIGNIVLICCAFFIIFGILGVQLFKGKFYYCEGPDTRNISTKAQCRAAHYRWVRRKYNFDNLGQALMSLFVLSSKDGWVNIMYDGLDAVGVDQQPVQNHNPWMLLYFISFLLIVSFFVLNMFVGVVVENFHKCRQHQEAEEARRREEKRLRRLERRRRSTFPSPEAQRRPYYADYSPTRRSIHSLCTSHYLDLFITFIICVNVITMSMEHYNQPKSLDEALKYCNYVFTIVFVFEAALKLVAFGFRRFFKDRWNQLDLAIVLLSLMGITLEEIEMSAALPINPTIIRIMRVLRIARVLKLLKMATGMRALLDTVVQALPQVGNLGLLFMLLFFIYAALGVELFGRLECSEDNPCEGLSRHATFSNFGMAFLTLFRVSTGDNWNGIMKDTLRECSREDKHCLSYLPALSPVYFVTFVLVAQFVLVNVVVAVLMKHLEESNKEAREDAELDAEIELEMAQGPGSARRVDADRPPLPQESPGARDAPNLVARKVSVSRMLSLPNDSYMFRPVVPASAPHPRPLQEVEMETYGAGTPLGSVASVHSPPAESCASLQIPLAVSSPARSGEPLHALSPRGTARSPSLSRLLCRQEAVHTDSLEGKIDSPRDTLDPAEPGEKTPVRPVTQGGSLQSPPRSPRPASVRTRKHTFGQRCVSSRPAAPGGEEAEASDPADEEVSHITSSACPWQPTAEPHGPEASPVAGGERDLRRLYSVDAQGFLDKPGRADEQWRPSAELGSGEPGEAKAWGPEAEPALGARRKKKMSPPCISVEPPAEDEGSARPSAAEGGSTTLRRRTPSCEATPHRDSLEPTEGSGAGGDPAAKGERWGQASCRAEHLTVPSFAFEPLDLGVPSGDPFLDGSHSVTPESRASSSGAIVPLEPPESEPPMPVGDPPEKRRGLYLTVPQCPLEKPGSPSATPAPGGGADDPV
# Chain of Protein Wnt-3a (P27467 whole entry): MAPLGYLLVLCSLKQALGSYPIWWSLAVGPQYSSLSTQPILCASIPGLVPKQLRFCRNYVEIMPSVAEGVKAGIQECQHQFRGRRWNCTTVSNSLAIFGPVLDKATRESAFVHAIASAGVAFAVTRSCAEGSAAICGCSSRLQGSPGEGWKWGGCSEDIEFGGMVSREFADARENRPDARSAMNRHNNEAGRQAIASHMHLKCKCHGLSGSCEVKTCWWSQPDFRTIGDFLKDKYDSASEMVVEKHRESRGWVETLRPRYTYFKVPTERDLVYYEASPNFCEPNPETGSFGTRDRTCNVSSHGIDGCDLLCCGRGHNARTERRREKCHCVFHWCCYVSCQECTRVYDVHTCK
# T3 sequence (P98170 whole entry): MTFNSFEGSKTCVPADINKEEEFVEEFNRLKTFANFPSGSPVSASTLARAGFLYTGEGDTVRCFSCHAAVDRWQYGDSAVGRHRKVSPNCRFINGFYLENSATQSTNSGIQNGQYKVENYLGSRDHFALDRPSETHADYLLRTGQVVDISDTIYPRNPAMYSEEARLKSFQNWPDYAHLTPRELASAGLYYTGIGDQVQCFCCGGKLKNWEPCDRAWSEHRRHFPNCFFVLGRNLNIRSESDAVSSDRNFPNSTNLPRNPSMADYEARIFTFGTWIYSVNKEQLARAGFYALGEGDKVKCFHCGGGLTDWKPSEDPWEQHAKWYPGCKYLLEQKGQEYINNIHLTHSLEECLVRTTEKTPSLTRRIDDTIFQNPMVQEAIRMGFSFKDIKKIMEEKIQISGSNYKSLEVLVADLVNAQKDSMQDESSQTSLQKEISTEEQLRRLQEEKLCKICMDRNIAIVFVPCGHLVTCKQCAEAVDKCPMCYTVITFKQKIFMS
# Chain of DNA dC->dU-editing enzyme APOBEC-3A (P31941 whole entry): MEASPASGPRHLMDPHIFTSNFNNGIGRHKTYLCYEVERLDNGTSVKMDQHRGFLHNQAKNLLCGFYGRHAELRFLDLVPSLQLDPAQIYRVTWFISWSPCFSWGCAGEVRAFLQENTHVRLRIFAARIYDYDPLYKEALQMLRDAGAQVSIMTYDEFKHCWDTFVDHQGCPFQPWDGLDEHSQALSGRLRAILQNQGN
# Chain of DNA dC->dU-editing enzyme APOBEC-3G (Q9HC16 whole entry): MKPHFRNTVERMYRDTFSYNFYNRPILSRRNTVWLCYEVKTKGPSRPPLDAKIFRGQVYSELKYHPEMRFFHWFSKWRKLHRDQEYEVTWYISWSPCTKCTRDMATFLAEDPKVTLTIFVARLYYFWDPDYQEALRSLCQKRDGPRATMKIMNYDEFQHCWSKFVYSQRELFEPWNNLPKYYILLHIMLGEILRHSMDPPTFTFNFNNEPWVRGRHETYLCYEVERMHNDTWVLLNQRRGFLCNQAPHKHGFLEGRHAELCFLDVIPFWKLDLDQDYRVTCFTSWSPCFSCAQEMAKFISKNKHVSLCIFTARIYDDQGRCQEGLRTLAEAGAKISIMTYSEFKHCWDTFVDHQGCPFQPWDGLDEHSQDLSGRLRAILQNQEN
# Chain of Cytochrome P450 2D6 (P10635 whole entry): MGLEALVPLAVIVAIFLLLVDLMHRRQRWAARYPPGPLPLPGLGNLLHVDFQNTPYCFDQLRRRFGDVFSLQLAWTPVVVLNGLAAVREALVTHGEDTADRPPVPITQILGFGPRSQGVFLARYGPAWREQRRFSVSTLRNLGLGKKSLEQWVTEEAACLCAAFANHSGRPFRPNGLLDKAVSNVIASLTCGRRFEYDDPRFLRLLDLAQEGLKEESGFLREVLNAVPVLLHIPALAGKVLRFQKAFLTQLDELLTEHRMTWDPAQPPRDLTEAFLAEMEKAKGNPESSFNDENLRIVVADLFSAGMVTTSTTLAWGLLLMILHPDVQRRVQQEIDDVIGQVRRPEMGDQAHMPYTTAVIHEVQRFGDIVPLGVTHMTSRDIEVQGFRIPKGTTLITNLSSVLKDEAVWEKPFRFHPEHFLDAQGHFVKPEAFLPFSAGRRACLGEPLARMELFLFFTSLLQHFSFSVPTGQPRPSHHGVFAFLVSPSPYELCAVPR
# Chain of Glucose-6-phosphate 1-dehydrogenase (P11413 whole entry): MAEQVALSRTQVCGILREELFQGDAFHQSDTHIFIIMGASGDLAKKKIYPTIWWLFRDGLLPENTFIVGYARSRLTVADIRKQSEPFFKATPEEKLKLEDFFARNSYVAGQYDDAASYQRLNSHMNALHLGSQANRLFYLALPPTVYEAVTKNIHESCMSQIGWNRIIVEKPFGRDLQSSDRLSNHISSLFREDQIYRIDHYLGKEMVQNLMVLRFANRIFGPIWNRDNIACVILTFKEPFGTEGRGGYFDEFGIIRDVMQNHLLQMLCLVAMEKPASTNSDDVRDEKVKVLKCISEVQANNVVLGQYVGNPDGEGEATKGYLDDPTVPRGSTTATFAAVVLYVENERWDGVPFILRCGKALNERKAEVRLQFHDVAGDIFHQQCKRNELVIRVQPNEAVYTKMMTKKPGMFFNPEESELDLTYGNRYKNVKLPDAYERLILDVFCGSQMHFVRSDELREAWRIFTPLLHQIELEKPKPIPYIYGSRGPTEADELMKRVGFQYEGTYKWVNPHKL
# Chain of Nonstructural protein 1 (Q194T2 whole entry): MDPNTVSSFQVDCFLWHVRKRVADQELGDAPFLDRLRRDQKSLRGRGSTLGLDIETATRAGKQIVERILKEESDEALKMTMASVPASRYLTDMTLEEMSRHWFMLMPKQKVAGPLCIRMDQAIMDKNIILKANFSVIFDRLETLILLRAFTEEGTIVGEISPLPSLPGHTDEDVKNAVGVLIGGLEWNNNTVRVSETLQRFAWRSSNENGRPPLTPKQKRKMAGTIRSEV
smiles,measurement,setting,value
Cc1n[nH]c(NC(=O)/C=C/c2ccccc2)n1,EC50,[1],1.09 µM (active)
same,AC50,[2],17.8 µM (active)
O=C1C(/C=N/Cc2ccncc2)=C(O)c2ccccc21,AC50,[3],7.11 µM (active)
O=C(N[C@@H]1C/C=C\C[C@@H](CC(=O)N(CCO)Cc2ccccc2)C(=O)NC[C@H](c2ccccc2)OC1=O)OCC1c2ccccc2-c2ccccc21,IC50,Protein Wnt-3a,8.93 µM (active)
same,AC50,[4],7.04 µM (active)
same,AC50,[5],4.32 µM (active)
Cc1cc(O)nc(N=N/C(=N/Nc2ccccc2C)c2ccccc2)n1,IC50,[6],1.36 µM (active)
same,AC50,HEK293,4.66 µM (active)
same,IC50,[7],1.46 µM (active)
O=[N+]([O-])c1ccc(/C=N/Nc2ccnc3cc(Cl)ccc23)o1,AC50,INS1,9.06 µM (active)
same,AC50,[2],15.3 µM (active)
CC(C)=CCC/C(C)=C/CNC(=O)C[C@H]1C[C@H](C(=O)N2CCOCC2)[C@@]2(C)c3[nH]c4cc(CCC(=O)N(C)C)ccc4c3CCN2C1=O,IC50,Protein Wnt-3a,23.6 µM (inactive)
same,AC50,[4],1.11 µM (active)
same,AC50,[5],1.33 µM (active)
O=C1CN(/N=C\c2ccc(-c3ccc([N+](=O)[O-])cc3)o2)C([O-])=N1.[Na+],AC50,Cytochrome P450 2D6,inactive
Clc1ncccc1/N=c1\ssnc1Cl,IC50,[8],9.88 µM (active)
Cc1cc(C)nc(N/N=C/c2c(CO)cnc(C)c2O)n1,IC50,Nonstructural protein 1,20.2 µM (active)
Cc1oc(-c2ccccc2)nc1Cn1cccc1C1=NC(c2ccccc2)CO1 (configuration not stated),EC50,[9],7.51 µM (active)
Cc1ccc(C(=O)O/N=C\c2ccc(N3CCCCC3)c([N+](=O)[O-])c2)cc1,CC50,[10],> 40 µM (active)
same,AC50,Cytochrome P450 3A4,22.4 µM (inconclusive)
same,AC50,Cytochrome P450 2D6,inconclusive
C/C(=N\NC(=O)c1ccccc1O)c1ccc(Br)s1,CC50,[11],24.4 µM (active)
O=C(Nc1nc2ccc([N+](=O)[O-])cc2s1)c1ccc(S(=O)(=O)N2CCCc3ccccc32)cc1,IC50,[6],1.46 µM (active)
same,EC50,[12],2.01 µM (active)
same,IC50,[7],2.16 µM (active)
same,AC50,INS1,3.34 µM (active)
same,EC50,[13],> 30 µM (not active)
CO[C@@H]1COC(=O)CCC[C@@H](C)[C@H](OC)COC(=O)CCC[C@H]1C,AC50,Cytochrome P450 2D6,inconclusive
CCn1c(=O)cc(OCC(=O)NCCC(C)C)c2ccccc21,IC50,[14],> 100 µM (not active)
same,IC50,[15],> 100 µM (inactive)
O=C(Nc1ccc2c(c1)OCO2)C1CCN(Cc2cnn(-c3ccccc3)c2-n2cccc2)CC1,EC50,[9],5.88 µM (active)
COc1ccc2c(c1)CCc1c[nH]nc1-2,AC50,[3],> 120 µM (inactive)
Cc1cc(C)nc(NCc2ccc(O)c(O)c2)n1,IC50,[16],27 µM (active)
COc1ccc(C2=NS(=O)(=O)N(C)C(C(=O)Nc3ccc4c(c3)OCO4)=C2)cc1OC,IC50,Nonstructural protein 1,> 100 µM (active)
NCCc1cc(O)c(O)cc1O,IC50,[17],> 80 µM (inactive)
CCCCN1CCc2cc(/C=C3\C(=O)NC(=S)N(C4CC4)C3=O)ccc21,IC50,[18],57.1 µM (inactive)
same,IC50,[19],68.2 µM (inactive)
CCCCCCCn1c(=N)n(CC(O)c2ccco2)c2ccccc21 (configuration not stated),IC50,[6],3.55 µM (active)
same,IC50,[7],1.79 µM (active)
CCC12CN3CCN(CC(C3)C1O)C2 (configuration not stated),IC50,[14],> 100 µM (not active)
same,IC50,[15],> 100 µM (inactive)
CCCCCn1c(=O)c(C(=O)NCc2ccncc2)c(O)c2ccccc21,EC50,[20],> 38 µM (not active)
same,EC50,[21],> 150 µM (inactive)
same,CC50,[11],14.7 µM (active)
Cc1ccc(-c2nc(NC(=O)CSc3ccc4ccccc4n3)ns2)cc1,IC50,[14],> 100 µM (not active)
same,IC50,[15],> 100 µM (inactive)
Cc1ccc(CN(C)C(=O)CSc2nnc(-c3ccc(F)cc3)n2C)o1,IC50,[18],> 99 µM (inactive)
same,IC50,[19],> 99 µM (inactive)
C[C@H](NC(=O)c1cc2c3ccccc3nc-2c[nH]1)C(=O)O,IC50,[17],> 80 µM (inactive)
COc1ccc(-c2nnc(SCC(=O)N(C)Cc3cccs3)[nH]2)cc1,IC50,[18],> 99 µM (inactive)
same,IC50,[19],> 99 µM (inactive)
O=C(c1ccc(C(F)(F)F)cc1)C1CCCN(Cc2ccncc2)C1 (configuration not stated),IC50,Protein Wnt-3a,5.15 µM (active)
N=c1oc2cc(O)ccc2cc1C(=O)Nc1ccc(F)cc1,AC50,[3],14.5 µM (active)
CC1CCN(S(=O)(=O)c2ccc(NN=C(C#N)C#N)cc2)CC1,EC50,[9],1.52 µM (active)
Cc1ccc(Cl)cc1N1CCN(Cc2nnnn2Cc2ccco2)CC1,EC50,[9],0.633 µM (active)
COc1cc(/C=N/Nc2cc(C)nc(NS(=O)(=O)c3ccc(C)cc3)n2)ccc1O,IC50,[14],> 100 µM (not active)
same,IC50,[15],> 100 µM (inactive)
